According to ChEMBL document CHEMBL4732135, “Structural and mechanistic insights into the inhibition of amyloid-β aggregation by Aβ fragment derived synthetic peptides” (Eur J Med Chem, 2021):
Square brackets hold non-standard residues; d marks the D form. Peptide text beside a SMILES is read from it. Gly(cPent) = N[C@H](C(=O)O)C1CCCC1; Ala(cPr) = N[C@@H](CC1CC1)C(=O)O; NMeL = CN[C@@H](CC(C)C)C(=O)O; NMeNva = CCC[C@H](NC)C(=O)O; Abu = CC[C@H](N)C(=O)O; βAla = NCCC(=O)O

Experiments:
[1] = biological target: Amyloid-beta precursor protein (Homo sapiens) (UniProt P05067); assay: Inhibition of amyloid beta (1 to 42) (unknown origin) assessed as reduction in peptide aggregation at 2 uM measured after 24 hrs by thioflavin-T fluorescence assay relative to control
PC-12 [2] = assay: Neuroprotective activity against amyloid beta 42-induced toxicity in rat PC-12 cells assessed as cell viability at 10 uM measured after 6 hrs by MTT assay (reference value: 74.05%); assay type: functional; settings: read-out: Activity
[3] = biological target: Amyloid-beta precursor protein (Homo sapiens) (UniProt P05067); assay: Inhibition of amyloid beta (1 to 42) (unknown origin) assessed as reduction in peptide aggregation at 10 uM measured after 24 hrs by thioflavin-T fluorescence assay relative to control
[4] = biological target: Amyloid-beta precursor protein (Homo sapiens) (UniProt P05067); assay: Inhibition of amyloid beta (1 to 42) (unknown origin) assessed as reduction in peptide aggregation at 4 uM measured after 24 hrs by thioflavin-T fluorescence assay relative to control
PC-12 [5] = assay: Neuroprotective activity against amyloid beta 42-induced toxicity in rat PC-12 cells assessed as cell viability at 4 uM measured after 6 hrs by MTT assay (reference value: 74.05%); assay type: functional; settings: read-out: Activity
PC-12 [6] = assay: Neuroprotective activity against amyloid beta 42-induced toxicity in rat PC-12 cells assessed as cell viability at 2 uM measured after 6 hrs by MTT assay (reference value: 74.05%); assay type: functional; settings: read-out: Activity

Chain of Amyloid-beta precursor protein (Homo sapiens) (P05067 whole entry): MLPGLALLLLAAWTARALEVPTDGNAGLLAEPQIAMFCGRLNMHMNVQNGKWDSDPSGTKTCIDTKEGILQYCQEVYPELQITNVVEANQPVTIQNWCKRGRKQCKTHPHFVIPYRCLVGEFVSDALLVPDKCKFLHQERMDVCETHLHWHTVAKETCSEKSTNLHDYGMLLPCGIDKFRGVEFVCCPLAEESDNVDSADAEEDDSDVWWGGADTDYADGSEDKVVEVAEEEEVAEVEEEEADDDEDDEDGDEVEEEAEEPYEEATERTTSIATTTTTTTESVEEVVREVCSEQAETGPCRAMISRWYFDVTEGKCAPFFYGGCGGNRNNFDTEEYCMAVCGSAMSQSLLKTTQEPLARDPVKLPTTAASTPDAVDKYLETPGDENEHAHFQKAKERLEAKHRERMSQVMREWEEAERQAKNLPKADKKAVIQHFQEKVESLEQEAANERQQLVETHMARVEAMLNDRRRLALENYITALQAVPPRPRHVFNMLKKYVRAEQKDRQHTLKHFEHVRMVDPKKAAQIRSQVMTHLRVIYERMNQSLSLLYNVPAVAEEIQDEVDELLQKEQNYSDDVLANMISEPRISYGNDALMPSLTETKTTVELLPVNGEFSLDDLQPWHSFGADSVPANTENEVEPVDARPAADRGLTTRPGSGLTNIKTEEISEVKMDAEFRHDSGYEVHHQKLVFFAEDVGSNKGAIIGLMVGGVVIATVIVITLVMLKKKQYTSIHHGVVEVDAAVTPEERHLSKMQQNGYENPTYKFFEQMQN

SMILES | inhibition [1] | viability at 10 µM (PC-12 [2]) | inhibition [3] | inhibition [4] | viability at 4 µM (PC-12 [5]) | viability at 2 µM (PC-12 [6])
CC(C)[C@H](N)C(=O)N[C@H](C(=O)NC[C@@H]1CCCN1[C@@H](C)C(=O)O)C(C)C | 0% | 58.8% | 11.9% | 0% | 64.7% | 72%
CC[C@H](C)[C@H](NC(=O)[C@@H](NC(=O)C[C@H](N)c1ccccc1)C(C)C)C(=O)N[C@@H](C)C(=O)O | 50.1% | 58.8% | 67.3% | 58.2% | 66.3% | 69.1%
CC[C@H](C)[C@H](NC(=O)CNC(=O)CN)C(=O)N[C@@H](C)C(=O)O (H-GGIA-OH) | 93.6% | 66.8% | 98.3% | 95.2% | 72.8% | 100%
CC[C@H](C)[C@H](NC(=O)[C@@H](NC(=O)[C@@H](N)C(C)C)C(C)C)C(=O)N[C@@H](CCC(=O)O)C(=O)O (H-VVIE-OH) | 38.8% | 84.9% | 65.1% | 39.3% | 76.3% | 68.9%
CC[C@H](C)[C@H](NC(=O)[C@@H](NC(=O)[C@@H](N)C(C)C)C(C)C)C(=O)N[C@@H](CC(N)=O)C(=O)O (H-VVIN-OH) | 38.6% | 69.2% | 71.5% | 59.9% | 67.4% | 93.6%
CC[C@H](C)[C@H](NC(=O)[C@@H](NC(=O)[C@@H](N)C(C)C)C(C)C)C(=O)N[C@@H](CCC(N)=O)C(=O)O (H-VVIQ-OH) | 24.2% | 74.6% | 23.4% | 26.5% | 75.2% | 76.9%
CC[C@H](NC(=O)[C@@H](NC(=O)[C@@H](NC(=O)[C@@H](N)C(C)C)C(C)C)[C@@H](C)CC)C(=O)O (H-VVI[Abu]-OH) | 2.8% | 65.6% | 32.5% | 2% | 73.4% | 77.9%
CC[C@H](C)[C@H](NC(=O)[C@@H](NC(=O)[C@@H](N)C(C)C)C(C)C)C(=O)NCCC(=O)O (H-VVI[βAla]-OH) | 0% | 87.3% | 13% | 0% | 93.1% | 97.8%
CC[C@H](NC(=O)[C@@H](NC(=O)[C@@H](N)C(C)C)C(C)C)C(=O)N[C@@H](C)C(=O)O (H-VV[Abu]A-OH) | 0% | 89.2% | 4.4% | 0% | 94.9% | 89.1%
CC(C)[C@H](N)C(=O)N[C@H](C(=O)N[C@@H](CC1CC1)C(=O)N[C@@H](C)C(=O)O)C(C)C (H-VV[Ala(cPr)]A-OH) | 0% | 65.9% | 0% | 0% | 77% | 68.4%
CC(C)[C@H](N)C(=O)N[C@H](C(=O)N[C@H](C(=O)N[C@@H](C)C(=O)O)C1CCCC1)C(C)C (H-VV[Gly(cPent)]A-OH) | 17.1% | 84.2% | 47.8% | 40.3% | 91.9% | 85.6%
CC(C)C[C@@H](C(=O)N[C@@H](C)C(=O)O)N(C)C(=O)[C@@H](NC(=O)[C@@H](N)C(C)C)C(C)C (H-VV[NMeL]A-OH) | 31.6% | 84.8% | 61% | 44.1% | 87.2% | 96.3%
CCC[C@@H](C(=O)N[C@@H](C)C(=O)O)N(C)C(=O)[C@@H](NC(=O)[C@@H](N)C(C)C)C(C)C (H-VV[NMeNva]A-OH) | 22.2% | 82.1% | 40.8% | 34.9% | 83.7% | 87.3%
